In assay [1] the target is T1, Myosin-IIIb (Homo sapiens) (UniProt Q8WXR4).
T1 sequence (whole entry): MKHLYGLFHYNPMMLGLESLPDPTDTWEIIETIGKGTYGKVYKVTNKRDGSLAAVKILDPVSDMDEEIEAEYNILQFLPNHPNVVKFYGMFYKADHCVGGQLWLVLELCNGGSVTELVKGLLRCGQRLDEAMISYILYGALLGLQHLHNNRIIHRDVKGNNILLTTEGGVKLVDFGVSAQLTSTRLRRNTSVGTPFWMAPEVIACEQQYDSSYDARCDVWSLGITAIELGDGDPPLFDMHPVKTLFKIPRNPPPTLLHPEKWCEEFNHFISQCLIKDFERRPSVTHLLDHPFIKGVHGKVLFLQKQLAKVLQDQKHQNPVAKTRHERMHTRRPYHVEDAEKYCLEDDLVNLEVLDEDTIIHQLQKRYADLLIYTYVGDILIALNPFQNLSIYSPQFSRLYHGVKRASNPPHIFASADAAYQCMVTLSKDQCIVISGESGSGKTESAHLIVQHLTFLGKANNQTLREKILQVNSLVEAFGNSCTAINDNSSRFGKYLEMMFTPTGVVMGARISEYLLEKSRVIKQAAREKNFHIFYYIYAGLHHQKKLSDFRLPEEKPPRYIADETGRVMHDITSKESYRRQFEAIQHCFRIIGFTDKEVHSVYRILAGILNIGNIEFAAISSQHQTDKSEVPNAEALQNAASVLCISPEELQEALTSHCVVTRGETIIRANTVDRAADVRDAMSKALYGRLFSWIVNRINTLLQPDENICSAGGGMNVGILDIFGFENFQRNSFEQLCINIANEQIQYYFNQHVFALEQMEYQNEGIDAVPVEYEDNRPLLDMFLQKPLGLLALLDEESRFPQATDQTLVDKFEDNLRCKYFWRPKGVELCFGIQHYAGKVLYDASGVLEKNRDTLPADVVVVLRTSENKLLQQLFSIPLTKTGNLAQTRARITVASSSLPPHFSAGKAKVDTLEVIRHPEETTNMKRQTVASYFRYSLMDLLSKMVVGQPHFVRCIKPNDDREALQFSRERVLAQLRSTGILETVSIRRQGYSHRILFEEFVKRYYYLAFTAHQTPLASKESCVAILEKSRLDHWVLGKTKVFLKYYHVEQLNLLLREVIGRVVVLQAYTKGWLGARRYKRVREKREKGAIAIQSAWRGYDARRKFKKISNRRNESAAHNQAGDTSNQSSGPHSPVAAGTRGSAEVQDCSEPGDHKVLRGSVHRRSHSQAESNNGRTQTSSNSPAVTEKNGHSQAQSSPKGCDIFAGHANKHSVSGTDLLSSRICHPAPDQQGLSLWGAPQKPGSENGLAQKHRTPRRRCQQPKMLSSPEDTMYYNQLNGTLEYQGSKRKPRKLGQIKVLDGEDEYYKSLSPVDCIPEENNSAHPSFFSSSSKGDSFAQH
As to the kind of experiment: Selectivity interaction (LanthaScreen Eu Kinase Binding Assay) EUB0001632a MYO3B. The note with it: at 10 µM.

The target in assay [2] is T2, Cytoplasmic tyrosine-protein kinase BMX (Homo sapiens) (UniProt P51813).
T2 sequence (whole entry): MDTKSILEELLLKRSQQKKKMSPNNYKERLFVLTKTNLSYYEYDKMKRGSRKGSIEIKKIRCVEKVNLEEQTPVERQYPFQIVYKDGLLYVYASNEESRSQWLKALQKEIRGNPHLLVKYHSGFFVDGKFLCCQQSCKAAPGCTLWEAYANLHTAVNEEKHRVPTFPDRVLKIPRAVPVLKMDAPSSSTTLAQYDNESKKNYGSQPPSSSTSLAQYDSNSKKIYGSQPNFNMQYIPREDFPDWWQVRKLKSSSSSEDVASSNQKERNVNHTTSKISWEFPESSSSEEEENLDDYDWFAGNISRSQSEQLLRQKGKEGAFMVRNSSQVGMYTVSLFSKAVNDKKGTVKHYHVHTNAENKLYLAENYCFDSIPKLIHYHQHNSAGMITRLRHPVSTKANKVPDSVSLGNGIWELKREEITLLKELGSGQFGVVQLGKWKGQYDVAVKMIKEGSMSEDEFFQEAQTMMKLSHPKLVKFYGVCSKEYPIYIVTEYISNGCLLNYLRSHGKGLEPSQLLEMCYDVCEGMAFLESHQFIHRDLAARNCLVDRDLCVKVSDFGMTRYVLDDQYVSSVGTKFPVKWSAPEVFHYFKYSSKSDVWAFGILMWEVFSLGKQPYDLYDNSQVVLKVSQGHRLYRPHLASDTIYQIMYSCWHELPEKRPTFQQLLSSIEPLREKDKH
Description: Selectivity interaction (SelectScreen profiling (Invitrogen)) EUB0000607a BMX. The note with it: at 2 µM.

The values below come from ChEMBL document CHEMBL5465560, “Selectivity Literature for EUbOPEN Chemogenomic Library” (2024).

As for `Cn1cc(-n2cnc3c(NCc4nc5cc(Cl)c(Cl)cc5[nH]4)nc(N4CCOCC4)nc32)cn1`, the % of inhibition in assay [1] is -8.99%. `CNC(=O)Nc1ccc(-c2nc(N3CC4CCC(C3)O4)c3cnn(C4CCC5(CC4)OCCO5)c3n2)cc1`: the % of inhibition in assay [2] amounted to 10%.
